According to patent US20260297121A1, “MITHRAMYCIN (MTM) 2’ OXIMES” (University of Kentucky Research Foundation, priority 2023, published 2026):
pIC50: −log10 of the molar value. Where two headings read alike, the source gives them in different places. Blank lines part the entries; values can stand above or below the compound they belong to.

Experiments:
TC71 = experiment: Cytotoxicity, resazurin fluorescence, TC71; format: cell-based; conditions: Homo sapiens, TC-71; Table 6; 72 hr; EWS cells
EWS cells = experiment: Cytotoxicity, average over Ewing (EWS) cell panel; format: cell-based; conditions: Table 6; 72 hr; average of EWS cells
Procedure: (§1) Exemplary compounds of the presently-disclosed subject matter were assessed for cytotoxicity (Table 5) in Ewing sarcoma (TC32) and non-Ewing (PC3 prostate cancer). […] Cells (1000-5000/well) were seeded in 96-well plates and allowed to attach and grow for 24 hr prior to adding compounds in half-log increments from 0.3 nM-10 μM. Cell viability was assessed after 72 hr continuous incubation with compounds using resazurin fluorescence. GI50 values were estimated using GraphPad Prism.

Hela = experiment: Cytotoxicity, resazurin fluorescence, Hela; format: cell-based; conditions: Homo sapiens, HeLa, read-out: GI50 Hela
DU145 = experiment: Cytotoxicity, resazurin fluorescence, DU145; format: cell-based; conditions: Homo sapiens, read-out: GI50 DU145
TC32 = experiment: Cytotoxicity, resazurin fluorescence, TC32; format: cell-based; conditions: Homo sapiens, TC-32, 72 h
Procedure: as §1

BL1395 = experiment: Cytotoxicity, resazurin fluorescence, BL1395; format: cell-based; conditions: read-out: GI50 BL1395
ES7 = experiment: Cytotoxicity, resazurin fluorescence, ES7; format: cell-based; conditions: Homo sapiens, ES7; Table 6; 72 hr; EWS cells
[1] = Clearance (CL) / pharmacokinetics; format: in vivo, mice; conditions: mouse, plasma, iv; Table 2
Procedure: (§2) Exemplary compounds of the presently-disclosed subject matter were assessed for activity, including clearance, potency, and selectivity. Results from studies are compiled in Tables 2-4.
(§3) Desirable clearance was identified at lower values of mL hr^−1kg^−1 (e.g., about ≤10 mL hr^−1 kg^−1), desirable potency was identified at lower values of IC50 (e.g., about ≤10 nM in TC32 cells), and desired selectivity was identified at higher ratios of IC50 in PC3/IC50 in TC32 (e.g. about >10).
Pharmacokinetics of exemplary compounds of the presently-disclosed subject matter were studied in mice following bolus IV dosing. Groups of three mice were administered the compound(s) and blood samples were collected via saphenous bleed. Plasma was separated by centrifugation and extracted to quantitate analytes by LC/MS/MS. Sample analysis followed upon the system meeting system suitability criteria customary for fit for purpose analytical methods. FIG. 1A includes data comparing YL-C09 to mithramycin (MTM) dosed separately. FIG. 1B includes data for YL-B171, YL-C110 and MTM dosed in cassette format.

SK.ES1 = experiment: Cytotoxicity, resazurin fluorescence, SK.ES1; format: cell-based; conditions: Homo sapiens, SK-ES1; Table 6; 72 hr; EWS cells
TC32 cells = experiment: Potency IC50 in TC32 cells and selectivity; format: cell-based; conditions: Homo sapiens, TC-32, Table 2, read-out: IC50 TC32
Procedure: as §2, §3

HepG2 = experiment: Cytotoxicity, resazurin fluorescence, HepG2; format: cell-based; conditions: Homo sapiens, read-out: GI50 HepG2
RDES = experiment: Cytotoxicity, resazurin fluorescence, RDES; format: cell-based; conditions: RD-ES; Table 6; 72 hr; EWS cells
log P = format: physicochemical; conditions: Table 2
PANC1 = experiment: Cytotoxicity, resazurin fluorescence, PANC1; format: cell-based; conditions: Homo sapiens, read-out: GI50 PANC1
A549 = experiment: Cytotoxicity, resazurin fluorescence, A549; format: cell-based; conditions: Homo sapiens, read-out: GI50 A549
Non EWS cells = experiment: Cytotoxicity, average over non-Ewing cell panel; format: cell-based; conditions: read-out: GI50 Average, Non EWS cells
Procedure: as §1

A673 = experiment: Cytotoxicity, resazurin fluorescence, A673; format: cell-based; conditions: Homo sapiens, A673; Table 6; 72 hr; EWS cells
PC3 [2] = experiment: Cytotoxicity, resazurin fluorescence, PC3; format: cell-based; conditions: Homo sapiens, PC-3, 72 h
Procedure: as §1

LNCap = experiment: Cytotoxicity, resazurin fluorescence, LNCap; format: cell-based; conditions: Homo sapiens, LNCaP, read-out: GI50 LNCap
PC3 [3] = experiment: IC50 in PC3 cells; format: cell-based; conditions: Homo sapiens, PC-3, read-out: IC50 PC2, Table 2; head prints PC2, text PC3
Procedure: as §2, §3

H460 = experiment: Cytotoxicity, resazurin fluorescence, H460; format: cell-based; conditions: Homo sapiens, read-out: GI50 H460
ES4 = experiment: Cytotoxicity, resazurin fluorescence, ES4; format: cell-based; conditions: Table 6; 72 hr; EWS cells
ES8 = experiment: Cytotoxicity, resazurin fluorescence, ES8; format: cell-based; conditions: Homo sapiens, ES8; Table 6; 72 hr; EWS cells
5838 = experiment: Cytotoxicity, resazurin fluorescence, 5838; format: cell-based; conditions: Table 6; 72 hr; express EWS-ERG
ES3 = experiment: Cytotoxicity, resazurin fluorescence, ES3; format: cell-based; conditions: Table 6; 72 hr; EWS cells
[4] = read-out: GI50 TC32, Table 6, EWS cells

- clearance [1]: 0.717 mL/min/kg
- pIC50 (TC32 cells): 8.67
- logP (log P): 1.62
- pIC50 (PC3 [3]): 7.71
Compound: CO[C@H](C(=NOCCNC(=O)c1cc2cc(F)ccc2[nH]1)[C@@H](O)[C@@H](C)O)[C@@H]1Cc2cc3cc(O[C@H]4C[C@@H](O[C@H]5C[C@@H](O)[C@H](O)[C@@H](C)O5)[C@H](O)[C@@H](C)O4)c(C)c(O)c3c(O)c2C(=O)[C@H]1O[C@H]1C[C@@H](O[C@H]2C[C@@H](O[C@H]3C[C@](C)(O)[C@H](O)[C@@H](C)O3)[C@@H](O)[C@@H](C)O2)[C@H](O)[C@@H](C)O1 [YL-B168]
- GI50 (TC71): 258 nM
- GI50 (EWS cells): 66.9 nM
- GI50 (Hela; 72 h): 470 nM
- GI50 (DU145; DU-145, 72 h): 90.5 nM
- GI50 (TC32; read-out: GI50 TC32, Table 5): 30 nM
- GI50 (TC32; [4]): 30.3 nM
- GI50 (BL1395; Lymphocyte, 72 h): 49.9 nM
- GI50 (ES7): 76.9 nM
- GI50 (SK.ES1): 39.2 nM
- GI50 (HepG2; HepG2, 72 h): > 1000 nM
- GI50 (RDES): 32.9 nM
- GI50 (PANC1; PANC-1, 72 h): 105 nM
- GI50 (A549; A549, 72 h): 358 nM
- GI50 (Non EWS cells; 72 h): 191 nM
- GI50 (A673): 34.5 nM
- GI50 (PC3 [2]; read-out: GI50 PC3, Table 5): 65 nM
- GI50 (PC3 [2]; read-out: GI50 PC3, Table 6, non EWS cells): 65.2 nM
- GI50 (LNCap; 72 h): 275 nM
- GI50 (H460; NCI-H460, 72 h): 116 nM
- GI50 (ES4): 30.9 nM
- GI50 (ES8): 68.8 nM
- GI50 5838: 40.2 nM
- GI50 (ES3): 56.7 nM

Compound: COC(C(=NOCCNC(=O)c1cc2cc(Br)ccc2[nH]1)C(O)C(C)O)C1Cc2cc3cc(OC4CC(OC5CC(O)C(O)C(C)O5)C(O)C(C)O4)c(C)c(O)c3c(O)c2C(=O)C1OC1CC(OC2CC(OC3CC(C)(O)C(O)C(C)O3)C(O)C(C)O2)C(O)C(C)O1 (stereo not drawn) [YL-B169]
- GI50 (TC71): 152 nM
- GI50 (EWS cells): 43.8 nM
- GI50 (Hela; Table 6, 72 hr, non EWS cells): 176 nM
- GI50 (DU145; DU-145, Table 6, 72 hr, non EWS cells): 49.9 nM
- GI50 (TC32; read-out: GI50 TC32, Table 5): 18 nM
- GI50 (TC32; [4]): 18.4 nM
- GI50 (BL1395; Table 6, 72 hr, lymphocyte origin): 31.3 nM
- GI50 (ES7): 25.6 nM
- clearance [1]: 0.467 mL/min/kg
- GI50 (SK.ES1): 24.4 nM
- pIC50 (TC32 cells): 8.94
- GI50 (HepG2; HepG2, Table 6, 72 hr, hepatic origin): 306 nM
- GI50 (RDES): 29.1 nM
- logP (log P): 2.37
- GI50 (PANC1; PANC-1, Table 6, 72 hr, non EWS cells): 62.1 nM
- GI50 (A549; A549, Table 6, 72 hr, non EWS cells): 558 nM
- GI50 (Non EWS cells; Table 6, 72 hr, average of non EWS cells): 171 nM
- GI50 (A673): 26 nM
- GI50 (PC3 [2]; Table 6, non EWS cells, read-out: GI50 PC3): 34 nM
- GI50 (PC3 [2]; read-out: GI50 PC3, Table 5): 34 nM
- GI50 (LNCap; Table 6, 72 hr, non EWS cells): 239 nM
- pIC50 (PC3 [3]): 7.69
- GI50 (H460; NCI-H460, Table 6, 72 hr, non EWS cells): 78.7 nM
- GI50 (ES4): 25.1 nM
- GI50 (ES8): 68.7 nM
- GI50 5838: 30.2 nM
- GI50 (ES3): 38.4 nM
